≈ marks a conversion by molar mass, not a printed value. Marks after values point to notes of the source that are not given here.
Tests used:
MV3 melanoma (human) = assay: In vivo antitumour activity, BALB/c nude mice inoculated with MV3 melanoma, topical application; conditions: 20 mg/mouse/day topical
Procedure: The temozolomide hexyl ester is chosen to conduct an in viva antitumour test. BALB/c nude mice were inoculated with MV3 melanoma (human). Once the tumour volume became 100–300 mm^3, the mice were divided into a controlled and a tested group of eight with a rational distribution of the mice according to the sizes of the tumours. The tested group was treated with 5% (W/V) free made dimethyl sulfoxide (DMSO) solution of the temozolomide hexyl ester twice a day (once on Saturday and Sunday) via repeated topical application (total dosage is 20 mg/mouse/day), while the controlled group was left to grow naturally. In a period of two-week experiment, the tumour growth in the mice was carefully recorded through body weighing and the measurement of the tumour sizes. After two weeks, the mice were scarified; tumour bulks were separated and weighed. The results of inhibition of tumour growth by the temozolomide hexyl ester are summarized in Table 5 and depicted in FIG. 10.
Preparation of 5% (W/V) DMSO solution of the temozolomide hexyl ester is carried out by weighing a actual amount of the temozolomide hexyl ester, then using DMSO to make the concentration to 50 mg/ml. After temozolomide hexyl ester is completely dissolved and a clear solution is obtained, the fresh made 5% (W/V) DMSO solution of the temozolomide hexyl ester is used in the experiments.
BALB/c nude mice were inoculated with MV3 melanoma (human). Once the tumour bulk became 100–300 mm^3, the mice were divided into a controlled and a tested group with a rational distribution of the mice according to the sizes of the tumours. Each group is consisted of 8 mice.
The tested group was treated with 5% (W/V) DMSO solution of the temozolomide hexyl ester twice a day (once on Saturday and Sunday) via repeated topical application on position of tumour and around of 2×2 cm^2 region (total dosage is 20 mg/mouse/day); while the controlled group was left free of treatment to allow the tumour to growth naturally.
The tumour volumes (TV) in the mice were measured for twice of a week, calculated using TV(mm^3)=(length×width^2)÷2, and carefully recorded and finally depicted in FIG. 10. After two weeks, the mice were scarified; tumour bulks were isolated, weighed and calculated the growth inhibition rate of MV3 melanoma (human) in BALB/c nude mice by the temozolomide hexyl ester. The antitumour activity of the temozolomide hexyl ester against MV3 melanoma (human) in BALB/c nude mice is evaluated by the relative tumour proliferation ratio (T/C %). T/C (%) is calculated by the following equation:
Where, RTV=Vt/Vo (Vo is the tumour volume (TV) at the time when the mice were divided into the tested group and the controlled group; Vt is the tumour volume (TV) were measured at each time interval FIG. 10). The criteria for effectiveness are (1) when T/C (%)>60, the compound is no effect; (2) when T/C (%)≦60 and statistically significant P<0.05, the compound is effect. In the case of the temozolomide hexyl ester, the T/C (%) in BALB/c nude mice bearing MV3 melanoma (human) is 33.7% (Table 3) and P<0.05.

MV3 (human melanoma) = assay: In vitro tumour cell growth inhibition (MTT), MV3; type: cell-based; conditions: Homo sapiens, 96 h
Procedure: (§1) Temozolomide (white powder), temozolomide acid (white powder) and temozolomide-8-carboxylate hexyl (white scale crystal) were made in house. For the estimation of in vitro tumour cell growth inhibition, MV3 (human melanoma), M14 (human melanoma), B16 and B16-BL6 (mouse melanoma), SHG-44, TJ899 and TJ905 (human glioma), MCF-7 (human breast), HCT-8 (human colon), A549 (human non small lung), Bel7402 (human hepatocellulor), and BGC-823 (human stomach) were used. All tumour cells were cultured in RPMI-1640 medium supplemented with 10% fetal bovine serum (FBS) at 37° C. in a humidified 5% CO2 incubator.
(§2) After being harvested from culture flasks, a cell suspension of 1×10^4/ml was made by using 1640 RPMI medium supplemented with 10% fetal bovine serum. 100 μl (contains 1000 tumour cells) of the cell suspension was seeded per well of 96-well flat-bottom Costar culture plates at 37° C. in a humidified 5% CO2 incubator for 24 hrs before introducing drugs. Each tested compounds was made for five different concentrations and 100 μl of the each concentration was introduced into parallel three wells; control wells were added with 100 μl of plain medium alone; fluorouracil (a chemotherapeutic antitumour drug) was used as the positive control. Cells were then incubated for 96 h. Proliferative response and cell death were determined using MTT (3-(4,5-dimethylthiazolyl)-2,5-diphenyl-tetrazolium bromide) assay.
(§3) MTT assay: Following incubation of cells with the tested compounds for 96 h, 100 μl of 0.4 mg/ml MTT in RPMI 1640 was added to each well and the plate was incubated at 37° C. for 4 h. The plate was then centrifuged and followed by removal of medium. 150 μl of DMSO was then added to dissolve formazan crystal. DMSO-added plates were placed on a plate shaker for 5 min and absorbance was measured spectrophotometrically at 540 nm (with reference wavelength at 450 nm) using a Benchmark microtiter plate reader (Bio-Rad 550, Bio-Rad Laboratories, CA, U.S.A.).
The IC50 was calculated from the curve of the tested compound concentrations against the inhibition rate of the tumour cells. Table 1 summarized the experiment results by using six human cancer cell lines, HCT-8 (colon carcinoma), A549 (non small lung carcinoma), MCF-7 (breast), Bel7402 (hepatocellulor carcinoma), BGC-823 (stomach adenocarcinoma), and MV3 (melanoma). Table 2 summarized the results from the experiment results by using two human melanoma cell lines, MV3 and M14, two mouse melanoma cell lines, B16 and B16-BL6, and three human glioma cell lines, TJ899, SHG-44 and TJ905.

[1] = tested on: Bel7402 (human hepatocellulor); assay: In vitro tumour cell growth inhibition (MTT), Bel-7402; type: cell-based; conditions: Table 1 experiment, 96 h
Procedure: as §1, §2, §3
(§4) The IC50 was calculated from the curve of the tested compound concentrations against the inhibition rate of the tumour cells. […]

BGC-823 (human stomach) = assay: In vitro tumour cell growth inhibition (MTT), BGC-823; type: cell-based; conditions: Table 1 experiment, 96 h
Procedure: as §1, §2, §3, §4

CCCCCCOC(=O)c1ncn2c(=O)n(C)nnc12 [temozolomide hexyl ester, Hexyl 3,4-dihydro-3-methyl-4-oxoimidazo[5,1-d]-1,2,3,5-tetrazine-8-carboxylate]
Body weight, end (MV3 melanoma (human); after two weeks, mean ± SD): 22.9 ± 2.23 g | Tumour weight (MV3 melanoma (human); after two weeks, mean ± SD): 0.41 ± 0.318 g | Tumour volume, end (MV3 melanoma (human); after two weeks, mean ± SD, P < 0.05 vs control): 622 ± 545.1* mm^3 | Body weight, start (MV3 melanoma (human); start, mean ± SD): 24.0 ± 1.53 g | Tumour volume, start (MV3 melanoma (human); start, mean ± SD): 116 ± 27 mm^3 | RTV (MV3 melanoma (human); RTV=Vt/Vo, two weeks): 3.01 ± 1.95 | Inhibition (%) of tumour growth (MV3 melanoma (human); from tumour weight, two weeks): 80.5% | T/C (%) (MV3 melanoma (human); relative tumour proliferation ratio, two weeks): 33.7% | IC50 (MV3 (human melanoma); Table 1 experiment): 8.84 µg/mL (≈ 31.6 µM) | IC50 (MV3 (human melanoma); Table 2 experiment (separate)): 25 µg/mL (≈ 89.5 µM) | IC50 [1]: 27.2 µg/mL (≈ 97.4 µM) | IC50 (BGC-823 (human stomach)): > 19.5 µg/mL

— patent US7173021B2, “Synthesis of temozolomide esters as potent anticancer pro-drugs for topical and transdermal applications in treatments of cancers” (Tianjin North Pharm Sci-Tech Co., Ltd., priority 2004, dated 2007)
